Laboratory results as given in patent US20260022142A1, “MACROCYCLIC IMMUNOMODULATORS” (Bristol-Myers Squibb Company, priority 2022, published 2026).
pIC50: −log10 of the molar value. Bridge positions count the residues as written; N and C are the ends. Square brackets hold non-standard residues; d marks the D form. Peptide text beside a SMILES is read from it. * marks the point of attachment. ξ: configuration not given here. Phe(4-COOH) = N[C@@H](Cc1ccc(C(=O)O)cc1)C(=O)O; Bip = N[C@@H](Cc1ccc(-c2ccccc2)cc1)C(=O)O; Phe(3-Me) = Cc1cccc(C[C@H](N)C(=O)O)c1; 3Thi = N[C@@H](Cc1ccsc1)C(=O)O; Cha = N[C@@H](CC1CCCCC1)C(=O)O; Cit = NC(=O)NCCC[C@H](N)C(=O)O; Thr(3ξ) = CC(O)[C@H](N)C(=O)O; 12Ado = NCCCCCCCCCCCC(=O)O; Carboxymethyl = O=C(O)C*; Orn = NCCC[C@H](N)C(=O)O; Aun = NCCCCCCCCCCC(=O)O; Dab = NCC[C@H](N)C(=O)O; Dap = NC[C@H](N)C(=O)O; AEEA = NCCOCCOCC(=O)O

Biological target: T1, PD-1/PD-L1 interaction (PE-labeled human PD-L1-Ig binding to Jurkat cell line over-expressing human PD-1) (Homo sapiens, UniProt Q15116)
T1 construct: expressed in transfected cells; host or cells: Jurkat
T1 sequence (Q15116 25-288): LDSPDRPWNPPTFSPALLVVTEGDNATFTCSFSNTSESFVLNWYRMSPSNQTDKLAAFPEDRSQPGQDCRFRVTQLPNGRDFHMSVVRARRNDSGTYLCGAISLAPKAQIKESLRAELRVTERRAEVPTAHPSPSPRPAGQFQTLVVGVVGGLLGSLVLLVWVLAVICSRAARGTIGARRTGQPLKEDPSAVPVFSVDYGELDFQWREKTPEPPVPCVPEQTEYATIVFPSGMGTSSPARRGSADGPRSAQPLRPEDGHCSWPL
Test: Jurkat-PD-1 Cell Binding High-Content Screening Assay (CBA)
Assay type: cell-based
Conditions: Jurkat cell line over-expressing human PD-1; PE-labeled PD-L1-Ig 20 nM final; read-out: Jurkat hPD1-PDL1 IC50
Method in brief: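 Binding of fluorescent PD-L1-Ig (phycoerythrin on Ig tag, 20 nM final, 1 h) measured by high-content imaging of fixed, Hoechst-counterstained Jurkat-hPD-1 cells. Compound added 2 h at 37° C beforehand, in DMEM with 10% fetal calf serum.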

Row | SMILES | pIC50
1 | Cc1cccc(C[C@@H]2NC(=O)[C@H](CC(=O)O)NC(=O)[C@H](Cc3ccc(OCC(=O)O)cc3)NC(=O)[C@H](CCCNC(=N)N)NC(=O)CSC[C@@H](C(=O)N[C@@H](CCN)C(=O)NCCCCCCCCCCC(=O)O)NC(=O)[C@H](C(C)O)NC(=O)[C@H](C(C)C)NC(=O)[C@H](CC3CCCCC3)NC(=O)[C@H](CCN)NC(=O)[C@@H](CC(C)C)NC(=O)[C@H](CCC(N)=O)NC(=O)[C@H](Cc3ccc(O)cc3)NC(=O)[C@H](Cc3ccc(-c4ccccc4)cc3)NC(=O)[C@H](Cc3ccc(O)cc3)NC2=O)c1 (stereo partly drawn) [Compound 3370] ({CH2CO}-RY(Carboxymethyl)D[Phe(3-Me)]Y[Bip]YQ[dL][Dab][Cha]V[Thr(3ξ)]C[Dab][Aun]-OH; thioether N-14) | 7.90
2 | Cc1cccc(C[C@@H]2NC(=O)[C@H](CC(=O)O)NC(=O)[C@H](Cc3ccc(OCC(=O)O)cc3)NC(=O)[C@H](CN)NC(=O)CSC[C@@H](C(=O)N[C@@H](CCN)C(=O)NCCOCCOCC(=O)NCCCCCCCCCCC(=O)O)NC(=O)[C@H](C(C)O)NC(=O)[C@H](C(C)C)NC(=O)[C@H](CC3CCCCC3)NC(=O)[C@H](CCN)NC(=O)[C@@H](CC(C)C)NC(=O)[C@H](CCCN)NC(=O)[C@H](CCCNC(N)=O)NC(=O)[C@H](Cc3ccc(-c4ccccc4)cc3)NC(=O)[C@H](Cc3ccc(O)cc3)NC2=O)c1 (stereo partly drawn) [Compound 2579] ({CH2CO}-[Dap]Y(Carboxymethyl)D[Phe(3-Me)]Y[Bip][Cit][Orn][dL][Dab][Cha]V[Thr(3ξ)]C[Dab][AEEA][Aun]-OH; thioether N-14) | 7.93
3 | Cc1cccc(C[C@@H]2NC(=O)[C@H](CC(=O)O)NC(=O)[C@H](Cc3ccc(OCC(=O)O)cc3)NC(=O)[C@H](C(C)O)NC(=O)CSC[C@@H](C(=O)N[C@H](CC(N)=O)C(=O)NCCCCCCCCCCC(=O)O)NC(=O)[C@H](CCN)NC(=O)[C@H](C(C)C)NC(=O)[C@H](CC3CCCCC3)NC(=O)[C@H](CCN)NC(=O)[C@@H](CC(C)C)NC(=O)[C@H](CCCN)NC(=O)[C@H](Cc3ccc(OCC(=O)O)cc3)NC(=O)[C@H](Cc3ccc(-c4ccccc4)cc3)NC(=O)[C@H](Cc3ccc(OCC(=O)O)cc3)NC2=O)c1 (stereo partly drawn) [Compound 3497] ({CH2CO}-[Thr(3ξ)]Y(Carboxymethyl)D[Phe(3-Me)]Y(Carboxymethyl)[Bip]Y(Carboxymethyl)[Orn][dL][Dab][Cha]V[Dab]C[dN][Aun]-OH; thioether N-14) | 8.44
4 | CC[C@H](C)[C@@H]1NC(=O)[C@H](Cc2ccc(-c3ccccc3)cc2)NC(=O)[C@H](C(C)C)NC(=O)[C@H](Cc2cccc(C)c2)NC(=O)[C@H](CC(=O)O)NC(=O)[C@H](Cc2ccc(C(=O)O)cc2)NC(=O)[C@H](Cc2ccncc2)NC(=O)CSC[C@@H](C(=O)N[C@@H](C)C(=O)N[C@@H](CCC(=O)O)C(=O)NCCCCCCCCCCC(=O)O)NC(=O)[C@H]([C@@H](C)O)NC(=O)[C@H](C(C)C)NC(=O)[C@H](CC2CCCCC2)NC(=O)[C@H](CCN)NC(=O)[C@@H](CC(C)C)NC(=O)[C@H](CCCN)NC1=O [Compound 1039] | 7.92
5 | CC(C)C[C@@H]1NC(=O)[C@H](Cc2c[nH]c3ccccc23)NC(=O)[C@H](CC(=O)O)NC(=O)[C@H](Cc2ccc(C(=O)O)cc2)NC(=O)[C@H](Cc2ccc(OCC(=O)O)cc2)NC(=O)CSC[C@@H](C(=O)N[C@@H](CCN)C(=O)NCCCCCCCCCCC(=O)O)NC(=O)[C@H](CCCNC(N)=O)NC(=O)[C@H](C(C)C)NC(=O)[C@H](CC2CCCCC2)NC(=O)[C@H](CCN)NC(=O)[C@@H](CC(C)C)NC(=O)[C@H](CCCN)NC(=O)[C@H](Cc2ccc(O)cc2)NC(=O)[C@H](Cc2ccc(-c3ccccc3)cc2)NC1=O [Compound 1234] ({CH2CO}-Y(Carboxymethyl)[Phe(4-COOH)]DWL[Bip]Y[Orn][dL][Dab][Cha]V[Cit]C[Dab][Aun]-OH; thioether N-14) | 7.40

The remaining lines, values ahead:

Row | pIC50 | SMILES
6 | 7.84 | CC(C)C[C@H]1NC(=O)[C@H](CCCN)NC(=O)[C@H](C(C)C)NC(=O)[C@H](Cc2ccc(-c3ccccc3)cc2)NC(=O)[C@H](C(C)C)NC(=O)[C@H](Cc2c[nH]c3ccccc23)NC(=O)[C@H](CC(=O)O)NC(=O)[C@H](Cc2ccc(OCC(=O)O)cc2)NC(=O)[C@H](Cc2c[nH]cn2)NC(=O)CSC[C@@H](C(=O)N[C@H](C)C(=O)NCCOCCOCC(=O)NCCCCCCCCCCC(=O)O)NC(=O)[C@H](C(C)O)NC(=O)[C@H](C(C)C)NC(=O)[C@H](CC2CCCCC2)NC(=O)[C@H](CCN)NC1=O (stereo partly drawn) [Compound 3054] ({CH2CO}-HY(Carboxymethyl)DWV[Bip]V[Orn][dL][Dab][Cha]V[Thr(3ξ)]C[dA][AEEA][Aun]-OH; thioether N-14)
7 | 7.41 | CC(C)C[C@H]1NC(=O)[C@H](CCCN)NC(=O)[C@H](C(C)C)NC(=O)[C@H](Cc2ccc(-c3ccccc3)cc2)NC(=O)[C@H](C(C)C)NC(=O)[C@H](Cc2c[nH]c3ccccc23)NC(=O)[C@H](CC(=O)O)NC(=O)[C@H](Cc2ccc(OCC(=O)O)cc2)NC(=O)[C@H](CN)NC(=O)CSC[C@@H](C(=O)N[C@@H](C)C(=O)N[C@@H](CCCCN)C(=O)NCCCCCCCCCCC(=O)O)NC(=O)[C@H]([C@@H](C)O)NC(=O)[C@H](C(C)C)NC(=O)[C@H](CC2CCCCC2)NC(=O)[C@H](Cc2cnc[nH]2)NC1=O [Compound 1090] ({CH2CO}-[Dap]Y(Carboxymethyl)DWV[Bip]V[Orn][dL]H[Cha]VTCAK[Aun]-OH; thioether N-14)
8 | 7.13 | CC(C)C[C@H]1NC(=O)[C@H](CCCN)NC(=O)[C@H](C(C)C)NC(=O)[C@H](Cc2ccc(-c3ccccc3)cc2)NC(=O)[C@H](C(C)C)NC(=O)[C@H](Cc2c[nH]c3ccccc23)NC(=O)[C@H](CC(=O)O)NC(=O)[C@H](Cc2ccc(OCC(=O)O)cc2)NC(=O)[C@H](Cc2ccsc2)NC(=O)CSC[C@@H](C(=O)N[C@@H](CCCN)C(=O)NCCOCCOCC(=O)NCCCCCCCCCCCC(=O)O)NC(=O)[C@H](C(C)O)NC(=O)[C@H](C(C)C)NC(=O)[C@H](CC2CCCCC2)NC(=O)[C@H](CCN)NC1=O (stereo partly drawn) [Compound 3168] ({CH2CO}-[3Thi]Y(Carboxymethyl)DWV[Bip]V[Orn][dL][Dab][Cha]V[Thr(3ξ)]C[Orn][AEEA][12Ado]-OH; thioether N-14)
9 | 7.58 | Cc1cccc(C[C@@H]2NC(=O)[C@H](CC(=O)O)NC(=O)[C@H](Cc3ccc(OCC(=O)O)cc3)NC(=O)[C@H](CN)NC(=O)CSC[C@@H](C(=O)N[C@@H](CCC(=O)O)C(=O)NCC(=O)NCCCCCCCCCCC(=O)O)NC(=O)[C@H]([C@@H](C)O)NC(=O)[C@H](C(C)C)NC(=O)[C@H](CC3CCCCC3)NC(=O)[C@H](Cc3cnc[nH]3)NC(=O)[C@@H](CC(C)C)NC(=O)[C@H](CCCN)NC(=O)[C@H](C(C)C)NC(=O)[C@H](Cc3ccc(-c4ccccc4)cc3)NC(=O)[C@H](C(C)C)NC2=O)c1 [Compound 1106] ({CH2CO}-[Dap]Y(Carboxymethyl)D[Phe(3-Me)]V[Bip]V[Orn][dL]H[Cha]VTCEG[Aun]-OH; thioether N-14)
10 | 7.79 | CC(C)C[C@H]1NC(=O)[C@H](CCCN)NC(=O)[C@H](C(C)C)NC(=O)[C@H](Cc2ccc(-c3ccccc3)cc2)NC(=O)[C@H](C(C)C)NC(=O)[C@H](Cc2c[nH]c3ccccc23)NC(=O)[C@H](CC(=O)O)NC(=O)[C@H](Cc2ccc(OCC(=O)O)cc2)NC(=O)[C@H](Cc2ccc(OCC(=O)O)cc2)NC(=O)CSC[C@@H](C(=O)NCC(=O)NCCOCCOCC(=O)N[C@@H](CCCN)C(=O)NCCCCCCCCCCCC(=O)O)NC(=O)[C@H](CO)NC(=O)[C@H](C(C)C)NC(=O)[C@H](CC2CCCCC2)NC(=O)[C@H](CCN)NC1=O [Compound 3179] ({CH2CO}-Y(Carboxymethyl)Y(Carboxymethyl)DWV[Bip]V[Orn][dL][Dab][Cha]VSCG[AEEA][Orn][12Ado]-OH; thioether N-14)
